# Measured values from patent US20030026786A1, “CHONDROGENIC DIFFERENTIATION OF HUMAN MESENCHYMAL STEM CELLS” (priority 1999, published 2003).
# “Also recorded” adds a separate entry of the source.
# B1: TGF-β3: transforming growth factor beta-3, chondroinductive agent (protein, UniProt P10600 301-412, looked up)
# Transforming growth factor …: ALDTNYCFRNLEENCCVRPLYIDFRQDLGWKWVHEPKGYYANFCSGPCPYLRSADTTHSTVLGLYNTLNPEASASPCCVPQDLEPLTILYYVGRTPKVEQLSNMVVKSCKCS
# Assays:
# hMSCs in pellet culture = assay: Induction of hypertrophy in hMSC pellet culture by sequential treatment with two media; format: cell-based, human; settings: for inducing hypertrophy: other preliminary experiments
# [1] = test system: human mesenchymal stem cells (hMSCs); assay: hMSC pellet culture in chondrogenic medium with low or high sugar concentration (pellet size, type II collagen immunostaining, toluidine blue); format: cell-based; settings: low-glucose medium supplemented with 3.5 g/l fructose; compared with high-glucose medium (4.5 g/l glucose)
# Procedure: The hMSCs in pellet culture that are undergoing chondrogenic differentiation express the extracellular matrix proteoglycans mentioned above. […] In FIG. 1, the increase in the size of the cell pellet is evident when the medium contains “high glucose”. Changes in the size of hMSC pellets reflect the extent of synthesis of extracellular matrix components. Each pellet was formed by transferring an aliquot of 200,000 cells into ½ ml chondrogenic medium with 1 g/l (5.5 mM) glucose (left) or 4.5 g/l (25 mM) glucose ( right). The chondrogenic medium consisted of DMEM with the stated concentration of glucose and the following supplements: 100 nM dexamethasone, 10 ng/ml Transforming Growth Factor)β, 1 mM sodium pyruvate, 5 μg/ml ascorbic acid-2-phosphate, and 40 μg/ml proline. A 1:99 dilution of “ITS+” supplied 6.25 μg/ml bovine insulin, 6.25 μg/ml transferrin, […], 5.33 μg/ml linoleic acid, and 1.25 mg/ml bovine serum albumin. Final concentrations of 100 U/ml penicillin, 100 μg/ml streptomycin, and 250 ng/ml amphotericin B were supplied by a 1:99 dilution of a concentrated antibiotic solution. The cells and medium were placed into a 15 ml polypropylene conical-bottom centrifuge tube, and gently centrifuged (500× g for 5 min.), after which the tubes with loosened caps were placed in a humidified 5% CO2 incubator at 37 C. […]
# [2] = test system: Human bone marrow-derived mesenchymal stem cells; assay: Chondrogenic differentiation of MSC pellets with TGF-β1 or TGF-β3 (toluidine blue, collagen and COMP immunostaining); format: cell-based; settings: 10 ng/ml
# Procedure: Human bone marrow-derived mesenchymal stem cells were cultured under standard conditions in the presence of 10% FBS until confluent. The cells were trypsinized, washed twice with chondrogenic medium, and resuspended at a density of 200,000 cells/ml in 15 ml polypropylene tubes in chondrogenic medium containing either 10 ng/ml TGF-01, TGF-β3 or neither of these. […] Frozen sections (8 μn) were stained with Toluidine blue. They were also stained for the following using standard immunocytochemistry protocols: collagen type 11, collagen type 1, and cartilage oligomeric matrix protein (COMP).
# [3] = no TGF-β3, 50 nM thyroxine, 20 mM β-glycerol phosphate, 10^−9 M dexamethasone, compared to standard chondrogenic medium for 28 days
molecule,measurement,setting,value
N[C@@H](Cc1cc(I)c(Oc2ccc(O)c(I)c2)c(I)c1)C(=O)O [T3],inducing hypertrophy,hMSCs in pellet culture,effective
N[C@@H](Cc1cc(I)c(Oc2cc(I)c(O)c(I)c2)c(I)c1)C(=O)O [thyroxine],hypertrophy,"hMSCs in pellet culture; no TGF-β3, 50 nM thyroxine combined with 20 mM β-glycerol phosphate and 10^−9 M dexamethasone, from day 14 to day 28",hypertrophic differentiation of hMSCs was the predominant pathway; also recorded: more prominent
same,deposition of type X collagen (antibody X53),hMSCs in pellet culture; [3],irregular but pronounced increase
same,staining for type II and type IX collagens,hMSCs in pellet culture; [3],intense staining
same,inducing hypertrophy,hMSCs in pellet culture,effective
same,hypertrophic effect,"hMSCs in pellet culture; withdrawing TGF-β3 and adding 50 nM thyroxine after two weeks of chondrogenic differentiation, two additional weeks of culture",pronounced hypertrophic effect
O=C(CO)[C@@H](O)[C@H](O)[C@H](O)CO [fructose],improvement to in vitro chondrogenic differentiation,[1],same improvement
"TGF-β1: member of the transforming growth factor-β superfamily, known promoter of cartilage formation",type II collagen expression,[2]; 14 days,localized expression of type II collagen
same,type II collagen staining,[2]; 21 days in culture,staining throughout the pellet except for the perimeter
same,type II collagen expression,[2]; after 8 days in pellet culture,no expression of type II collagen
B1,cell morphology (hypertrophic cells),[2]; 14 days,A large proportion of the cells were hypertrophic
same,pellet size,[2]; 14 days,larger in size
same,type II collagen expression,[2]; 14 days,"expression of type II collagen throughout, except for a central area"
same,COMP staining,[2]; 21 days in culture,reduced pericellular staining and increased interterritorial staining
same,type II collagen staining,[2]; 21 days in culture,very strong staining
same,type II collagen expression,[2]; after 8 days in pellet culture,some cells-ex fessed type II collagen
same,effect on chondrogenic differentiation of human MSCs in vitro,[2]; up to 21 days,dramatic effect; also recorded: more pronounced
